Laboratory results as given in patent US10118925B2, “Imidazo[4,5-c] ring compounds containing substituted guanidine groups” (3M INNOVATIVE PROPERTIES COMPANY, priority 2015, dated 2018).
Where a name gives a salt, the structure may show the parent alone.

How the values were obtained:
[1] = system: Human peripheral blood mononuclear cells (PBMC); experiment: Cytokine induction in human cells (PBMC): TNF-alpha by multiplex bead assay; type: cell-based; conditions: 21-24 hrs, lowest concentration inducing cytokine at least 2× negative control, tested 0.0001-10 micromolar
Description: (§1) Whole blood was obtained from healthy human donors and collected by venipuncture into vacutainer tubes or syringes containing EDTA. Human peripheral blood mononuclear cells (PBMC) were purified from the whole blood by density gradient centrifugation. Histopaque 1077 (15 mL, Sigma, St. Louis, Mo.) was transferred to 6×50 mL sterile polypropylene conical tubes. The Histopaque was overlayed with 15-25 mL of blood diluted 1:2 in Hank's Balanced Salts Solution (HBSS) (Gibco, Life Technology, Grand Island N.Y.). The tubes were then centrifuged at 1370 rpm for 30 minutes at 20° C., with no brake (400×g, GH 3.8 A Rotor).
(§2) The interface (buffy coat) containing the PBMC was collected and placed in a new sterile 50 mL conical polypropylene centrifuge tube. The PBMC were mixed with an equal volume of HBSS (about 20 mL from the interface and about 20 mL of HBSS), and then centrifuged at 1090 rpm, 10 min, 20° C., with brake (270×g, GH 3.8 A Rotor). After completing centrifugation, the cells were resuspended in 2-3 mL ACK Red blood cell lysis buffer (ammonium chloride potassium solution, Gibco, Life Technology) and incubated for 2-5 minutes at 20° C. […]
(§3) The number of viable cells were determined by counting with a Miltenyi FACS instrument (Miltenyi Biotec Inc., San Diego, Calif.) or by using a hemacytometer. […] Ten microliters of the diluted cells were then applied to the hemacytometer, and the number of viable PBMC were determined by microscopy. […]
(§4) IFN-alpha cytokine levels (pg/mL) were measured by ELISA (human IFN-α, pan specific, Mabtech, Cinncinnati, Ohio), IFN-gamma, TNF-alpha, and IP-10 cytokine levels (pg/mL) were measured by multiplex bead assay (magnetic beads, R & D Systems Minneapolis, Minn.) according to the manufacturer's instructions.
(§5) Specifically, the minimum effective concentration of each compound (micromolar) was determined as the lowest concentration of the compound that induced a measured cytokine response at a level ([…]) that was at least 2× greater than that observed with the negative control wells.

[2] = system: Human peripheral blood mononuclear cells (PBMC); experiment: Cytokine induction in human cells (PBMC): IP-10 by multiplex bead assay; type: cell-based; conditions: 21-24 hrs, lowest concentration inducing cytokine at least 2× negative control, tested 0.0001-10 micromolar
Description: as §1, §2, §3, §4, §5

[3] = system: Human peripheral blood mononuclear cells (PBMC); experiment: Cytokine induction in human cells (PBMC): IFN-alpha by ELISA; type: cell-based; conditions: 21-24 hrs, lowest concentration inducing cytokine at least 2× negative control, tested 0.0001-10 micromolar
Description: as §1, §2, §3, §4, §5

[4] = system: Human peripheral blood mononuclear cells (PBMC); experiment: Cytokine induction in human cells (PBMC): IFN-gamma by multiplex bead assay; type: cell-based; conditions: 21-24 hrs, lowest concentration inducing cytokine at least 2× negative control, tested 0.0001-10 micromolar
Description: as §1, §2, §3, §4, §5

Row | melting point | Structure (SMILES) | MEC to Induce Cytokine TNF-alpha [1] | MEC to Induce Cytokine IP-10 [2] | MEC to Induce Cytokine IFN-alpha [3] | MEC to Induce Cytokine IFN-gamma [4]
1 | 172 to 174 °C | CCCCc1nc2c(N)nc3ccccc3c2n1CCCCN/C(=N/C(C)C)NC(C)C (as salt: hydrochloride) [Example 2, 1-[4-(4-amino-2-butyl-imidazo[4,5-c]quinolin-1-yl)butyl]-2,3-diisopropyl-guanidine Dihydrochloride] |  |  |  | 
2 |  | CC(C)Cn1cnc2c(N)nc3ccccc3c21 [imiquimod, reference compound] | 10 µM | 10 µM | 10 µM | 10 µM
3 | 210 to 216 °C | CCCCc1nc2c(N)nc3ccccc3c2n1CCCCNC(=N)NC(C)C (as salt: hydrochloride) [Example 1, 1-[4-(4-amino-2-butyl-imidazo[4,5-c]quinolin-1-yl)butyl]-3-isopropyl-guanidine dihydrochloride] |  |  |  | 
4 |  | CCCCc1nc2c(N)nc3ccccc3c2n1CCCCNC(=N)NC(C)C [Example 1, 1-[4-(4-amino-2-butyl-imidazo[4,5-c]quinolin-1-yl)butyl]-3-isopropyl-guanidine dihydrochloride] | 0.1 µM | 0.001 µM | 0.01 µM | 0.1 µM
5 |  | CCCCc1nc2c(N)nc3ccccc3c2n1CCCCN/C(=N/C(C)C)NC(C)C [Example 2, 1-[4-(4-amino-2-butyl-imidazo[4,5-c]quinolin-1-yl)butyl]-2,3-diisopropyl-guanidine Dihydrochloride] | 10 µM | 0.1 µM | 0.1 µM | 1 µM
